A short description of series [1]: Efflux ratio of permeability in human Caco2 cells. It is filed as ADME, cell-based. The note with it: caco-2. For orientation: Caco-2 monolayers are a common model of the intestinal barrier.
The target in series [2] is T1, Voltage-gated inwardly rectifying potassium channel KCNH2 (Homo sapiens, UniProt Q12809). Put plainly: Inhibition of human ERG at 3 uM relative to control. The note with it: 3 µM.
In series [3] the target is T1, Voltage-gated inwardly rectifying potassium channel KCNH2. Put plainly: (§1) Inhibition of human ERG at 10 uM relative to control. The note with it: 10 µM.
Series [4] in a line: Stability in mouse microsomes. Note: time not given here. Format: ADME, Microsome.
Series [5] has as its target T1, Voltage-gated inwardly rectifying potassium channel KCNH2. Put plainly: Inhibition of human ERG at 1 uM relative to control. The note with it: 1 µM.
Series [6] can be described thus: Passive permeability in human Caco2 cells. The note with it: caco-2. Format: ADME, cell-based.
Series [7] in a line: Stability in human microsomes. Note: time not given here. It is filed as ADME, Microsome.
For a further series, the target named is hERG (KCNH2) (Homo sapiens, UniProt Q12809). The series is described as §1.
Chain of hERG (KCNH2) (Q12809 whole entry): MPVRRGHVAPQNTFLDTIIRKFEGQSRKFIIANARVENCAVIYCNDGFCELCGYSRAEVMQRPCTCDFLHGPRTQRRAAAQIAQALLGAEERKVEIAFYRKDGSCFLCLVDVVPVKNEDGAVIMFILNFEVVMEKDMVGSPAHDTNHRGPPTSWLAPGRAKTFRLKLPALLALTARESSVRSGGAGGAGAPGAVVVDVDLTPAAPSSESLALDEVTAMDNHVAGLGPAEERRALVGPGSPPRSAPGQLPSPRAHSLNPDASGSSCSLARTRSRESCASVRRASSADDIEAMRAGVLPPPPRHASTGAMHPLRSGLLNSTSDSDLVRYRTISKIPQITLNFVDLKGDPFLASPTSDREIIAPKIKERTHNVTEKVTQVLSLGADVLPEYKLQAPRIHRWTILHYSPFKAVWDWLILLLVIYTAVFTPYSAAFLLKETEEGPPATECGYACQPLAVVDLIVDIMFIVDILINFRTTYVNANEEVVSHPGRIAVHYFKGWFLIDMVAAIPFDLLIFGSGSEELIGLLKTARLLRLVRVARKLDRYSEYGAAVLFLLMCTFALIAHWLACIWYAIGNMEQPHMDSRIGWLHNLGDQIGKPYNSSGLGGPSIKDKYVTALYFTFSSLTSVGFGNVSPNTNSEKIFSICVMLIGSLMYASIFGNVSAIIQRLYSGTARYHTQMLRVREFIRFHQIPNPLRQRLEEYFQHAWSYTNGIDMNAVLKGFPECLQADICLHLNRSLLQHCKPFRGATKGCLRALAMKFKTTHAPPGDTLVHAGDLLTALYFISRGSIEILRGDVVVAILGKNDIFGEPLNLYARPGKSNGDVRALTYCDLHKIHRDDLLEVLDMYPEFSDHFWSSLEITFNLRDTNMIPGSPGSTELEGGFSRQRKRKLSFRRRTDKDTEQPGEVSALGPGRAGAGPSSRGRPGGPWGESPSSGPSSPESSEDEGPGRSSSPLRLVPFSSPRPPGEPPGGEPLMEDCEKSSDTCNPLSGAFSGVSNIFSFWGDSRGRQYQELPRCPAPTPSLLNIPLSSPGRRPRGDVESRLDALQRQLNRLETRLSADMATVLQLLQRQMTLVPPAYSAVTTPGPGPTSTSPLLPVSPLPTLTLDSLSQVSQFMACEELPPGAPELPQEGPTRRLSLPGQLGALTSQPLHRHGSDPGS
Series [8] in a line: Stability in rat microsomes. Note: time not given here. Format: ADME, Microsome.

T1 sequence (Q12809 whole entry): as above

On to `CCCN1[C@H]2CC[C@H]1CC(c1ccccc1OC)C2` (relative stereo; 4), for which, in [1], the Ratio was 4.1. The “inhibition (INH)” value in [2] is reported as 25%; in series [3], 56.5%; in series [5] it was 10%. Further, the Stability came to 6% in series [4] and 62% in [7]. In series [6], the permeability is given as 99.7%.
The efflux ratio is a quotient of directional permeabilities that is used to spot active efflux. The inhibition is the change of the read-out against control, counted positive when it falls. Read a high inhibition as strong suppression. On to `CCCN1[C@H]2CC[C@H]1CC(c1ccccc1OC)C2` (relative stereo; 8a), for which the efflux ratio in series [1] amounted to 2.9. In addition, the entries for the “inhibition (INH)” value in series [2] and in series [5] were 46% and 22%, respectively. The compound also yielded an inhibition at 10 µM against hERG (KCNH2) of 74%. The Stability in [4] amounted to 3%; in series [7], 25%; in [8] it was 2%. For the same compound, the permeability in series [6] is given as 100%.
On to `CCCN1[C@H]2COC[C@H]1CC(c1ccccc1OC)C2` (relative stereo; 16), for which the Ratio in [1] is reported as 3.1. Further, the “inhibition (INH)” value in series [2] is 17%; in series [3], 39%; in series [5], 6%. The Stability is 7% in [4] and 35% in series [7].
